The assay deals with CCR2 (Homo sapiens (Human), UniProt P41597). In words: MCP-1 Receptor Binding Assay in THP-1 Cells.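 Note: THP-1 is a human monocytic cell line, and nonspecific binding was defined with 1 µM unlabeled MCP-1.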 To be noted: 0.5 nM 125I labeled MCP-1, 2 hours at 30° C., read-out: Inhibition of MCP-1 Binding IC50 MCP1B.
Sequence of CCR2 (P41597 whole entry): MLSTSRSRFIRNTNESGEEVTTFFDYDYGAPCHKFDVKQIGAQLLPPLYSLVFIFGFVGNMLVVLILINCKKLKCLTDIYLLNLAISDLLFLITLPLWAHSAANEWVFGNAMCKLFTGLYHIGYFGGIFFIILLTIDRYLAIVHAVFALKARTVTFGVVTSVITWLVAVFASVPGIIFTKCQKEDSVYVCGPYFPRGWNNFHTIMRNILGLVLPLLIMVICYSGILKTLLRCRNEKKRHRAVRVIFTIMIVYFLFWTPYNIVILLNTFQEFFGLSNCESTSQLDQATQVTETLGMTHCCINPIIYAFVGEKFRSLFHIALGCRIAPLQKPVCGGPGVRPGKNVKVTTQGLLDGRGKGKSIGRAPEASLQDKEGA
The term IC50 denotes the point on the concentration scale where inhibition reaches its midpoint. On to `O=C(CNc1ncnc2ccc(C(F)(F)F)cc12)NC1CN([C@H]2CC[C@@H](N3CCCCC3=O)CC2)C1` [Example 56, N-(1-((1s,4s)-4-(2-oxopiperidin-1-yl)cyclohexyl)azetidin-3-yl)-2-((6-(trifluoromethyl)quinazolin-4-yl)amino)acetamide], for which the IC50 was 0.55 µM.
As to `O=C(CNc1ncnc2ccc(C(F)(F)F)cc12)NC1CN([C@H]2CC[C@@H](N3C(=O)CCC3=O)CC2)C1` [Example 57, N-(1-((1s,4s)-4-(2,5-dioxopyrrolidin-1-yl)cyclohexyl)azetidin-3-yl)-2-((6-(trifluoromethyl)quinazolin-4-yl)amino)acetamide], the IC50 came to 0.28 µM.
The same measure for `O=C(CNc1ccnc2ccc(C(F)(F)F)cc12)NC1CN([C@H]2CC[C@@H](n3ccccc3=O)CC2)C1` [Example 58, N-(1-((1s,4s)-4-(2-oxopyridin-1(2H)-yl)cyclohexyl)azetidin-3-yl)-2-((6-(trifluoromethyl)quinolin-4-yl)amino)acetamide]: 0.091 µM.
To `O=C(CNc1cc(C(F)(F)F)nc2ccc(C(F)(F)F)cc12)NC1CN([C@H]2CC[C@@H](n3ccccc3=O)CC2)C1` [Example 59, 2-((2,6-bis(trifluoromethyl)quinolin-4-yl)amino)-N-(1-((1s,4s)-4-(2-oxopyridin-1(2H)-yl)cyclohexyl)azetidin-3-yl)acetamide] belongs 0.13 µM.
As for `N#Cc1cc(NCC(=O)NC2CN([C@H]3CC[C@@H](n4ccccc4=O)CC3)C2)c2cc(C(F)(F)F)ccc2n1` [Example 60, 2-((2-cyano-6-(trifluoromethyl)quinolin-4-yl)amino)-N-(1-((1s,4s)-4-(2-oxopyridin-1(2H)-yl)cyclohexyl)azetidin-3-yl)acetamide], the IC50 is 0.04 µM.
The same measure for `NC(=O)c1cc(NCC(=O)NC2CN([C@H]3CC[C@@](O)(c4cncs4)CC3)C2)c2cc(C(F)(F)F)ccc2n1` [Example 62]: 0.009 µM; for `CN(CC(=O)NC1CN([C@H]2CC[C@@](O)(c3nccs3)CC2)C1)c1ncnc2ccc(C(F)(F)F)cc12` [Example 64, N-(1-((1r,4r)-4-hydroxy-4-(thiazol-2-yl)cyclohexyl)azetidin-3-yl)-2-(methyl(6-(trifluoromethyl)quinazolin-4-yl)amino)acetamide]: 0.83 µM.
To `Nc1ccc(C2CCC(N3CC(NC(=O)CNc4ncnc5ccc(C(F)(F)F)cc45)C3)CC2)nc1` (stereo not shown) [Example 70, N-(1-(4-(5-aminopyridin-2-yl)cyclohexyl)azetidin-3-yl)-2-((6-(trifluoromethyl)quinazolin-4-yl)amino)acetamide] belongs 0.009 µM.
To `O=C(CNc1ncnc2ccc(C(F)(F)F)cc12)NC1CN([C@H]2CC[C@@H](c3ccccc3CO)CC2)C1` [Example 73, N-(1-((1s,4s)-4-(2-(hydroxymethyl)phenyl)cyclohexyl)azetidin-3-yl)-2-((6-(trifluoromethyl)quinazolin-4-yl)amino)acetamide] belongs 0.055 µM; to `CNc1cnccc1C1CCC(N2CC(NC(=O)CNc3ncnc4ccc(C(F)(F)F)cc34)C2)CC1` (stereo not shown) [Example 74, N-(1-(4-(3-(methylamino)pyridin-4-yl)cyclohexyl)azetidin-3-yl)-2-((6-(trifluoromethyl)quinazolin-4-yl)amino)acetamide], 0.13 µM.
In the case of `Cc1ccc([C@]2(O)CC[C@H](N3CC(NC(=O)CNc4ncnc5ccc(C(F)(F)F)cc45)C3)CC2)cn1` [Example 75, N-(1-((1r,4r)-4-hydroxy-4-(6-methylpyridin-3-yl)cyclohexyl)azetidin-3-yl)-2-((6-(trifluoromethyl)quinazolin-4-yl)amino)acetamide], the IC50 is 0.011 µM.
The same measure for `CC(C)c1nc(NCC(=O)NC2CN([C@H]3CC[C@@](O)(c4cncs4)CC3)C2)c2cc(C(F)(F)F)ccc2n1` [Example 88]: 0.007 µM; for `CCCC(O)[C@H]1CC[C@@H](N2CC(NC(=O)CNc3ncnc4ccc(C(F)(F)F)cc34)C2)CC1` (stereo partly drawn) [Example 90, N-(1-((1S,4s)-4-(1-hydroxybutyl)cyclohexyl)azetidin-3-yl)-2-((6-(trifluoromethyl)quinazolin-4-yl)amino)acetamide]: 0.013 µM; for `C=CCC(O)[C@H]1CC[C@@H](N2CC(NC(=O)CNc3ncnc4ccc(C(F)(F)F)cc34)C2)CC1` (stereo partly drawn) [Example 91, N-(1-((1S,4s)-4-(1-hydroxybut-3-en-1-yl)cyclohexyl)azetidin-3-yl)-2-((6-(trifluoromethyl)quinazolin-4-yl)amino)acetamide]: 0.016 µM.
To `C=CC(O)[C@H]1CC[C@@H](N2CC(NC(=O)CNc3ncnc4ccc(C(F)(F)F)cc34)C2)CC1` (stereo partly drawn) [Example 92, N-(1-((1S,4s)-4-(1-hydroxyallyl)cyclohexyl)azetidin-3-yl)-2-((6-(trifluoromethyl)quinazolin-4-yl)amino)acetamide] belongs 0.016 µM; to `CCC(O)[C@H]1CC[C@@H](N2CC(NC(=O)CNc3ncnc4ccc(C(F)(F)F)cc34)C2)CC1` (stereo partly drawn) [Example 93, N-(1-((1S,4s)-4-(1-hydroxypropyl)cyclohexyl)azetidin-3-yl)-2-((6-(trifluoromethyl)quinazolin-4-yl)amino)acetamide], 0.021 µM.
As for `O=C(CNc1ncnc2ccc(C(F)(F)F)cc12)NC1CN([C@H]2CC[C@@H](C(O)C3CCCC3)CC2)C1` (stereo partly drawn) [Example 94, N-(1-((1S,4s)-4-(cyclopentyl(hydroxy)methyl)cyclohexyl)azetidin-3-yl)-2-((6-(trifluoromethyl)quinazolin-4-yl)amino)acetamide], the half-maximal inhibitory concentration (IC50) stood at 0.024 µM.
To `C#CC(O)[C@H]1CC[C@@H](N2CC(NC(=O)CNc3ncnc4ccc(C(F)(F)F)cc34)C2)CC1` (stereo partly drawn) [Example 95, N-(1-((1R,4s)-4-(1-hydroxyprop-2-yn-1-yl)cyclohexyl)azetidin-3-yl)-2-((6-(trifluoromethyl)quinazolin-4-yl)amino)acetamide] belongs 0.028 µM; to `C=C(C)C(O)[C@H]1CC[C@@H](N2CC(NC(=O)CNc3ncnc4ccc(C(F)(F)F)cc34)C2)CC1` (stereo partly drawn) [Example 96, N-(1-((1R,4s)-4-(1-hydroxy-2-methylallyl)cyclohexyl)azetidin-3-yl)-2-((6-(trifluoromethyl)quinazolin-4-yl)amino)acetamide], 0.075 µM.
To `CC(O)[C@H]1CC[C@@H](N2CC(NC(=O)CNc3ncnc4ccc(C(F)(F)F)cc34)C2)CC1` (stereo partly drawn) [Example 97, N-(1-((1S,4s)-4-(1-hydroxyethyl)cyclohexyl)azetidin-3-yl)-2-((6-(trifluoromethyl)quinazolin-4-yl)amino)acetamide] belongs 0.089 µM; to `CC(C)(C)C(O)[C@H]1CC[C@@H](N2CC(NC(=O)CNc3ncnc4ccc(C(F)(F)F)cc34)C2)CC1` (stereo partly drawn) [Example 98, N-(1-((1R,4s)-4-(1-hydroxy-2,2-dimethylpropyl)cyclohexyl)azetidin-3-yl)-2-((6-(trifluoromethyl)quinazolin-4-yl)amino)acetamide], 0.753 µM.
To `O=C(CNc1ncnc2ccc(C(F)(F)F)cc12)NC1CN([C@H]2CC[C@@H](C(O)c3cncs3)CC2)C1` (stereo partly drawn) [Example 99, N-(1-((1R,4s)-4-(hydroxy(thiazol-5-yl)methyl)cyclohexyl)azetidin-3-yl)-2-((6-(trifluoromethyl)quinazolin-4-yl)amino)acetamide] belongs 0.019 µM.

These data come from patent publication US9062048B2, “Cyclohexyl-azetidinyl antagonists of CCR2” (Janssen Pharmaceutica NV, priority 2010, dated 2015).
